Assay results: patent US20180371076A1, “MATERNAL TH17 CELLS AND PSYCHIATRIC DISORDERS” (New York University, priority 2017, published 2018)

Tests used:
IL-17a = IL-17a ELISA of maternal sera and placenta/decidua extract; assay type: in vivo, mouse; conditions: for maternal serum IL-17a: serum at E14.5-E15.5, vs PBS
Procedure: Cell preparation, Flow cytometry, ELISA. Embryos at each implantation site were dissected in ice-cold HBSS containing Ca^2+ and Mg^2+. Myometrium was first peeled off of the decidua and embryos were discarded. Dissected decidual and placental tissues were then minced and enzymatically dissociated in HBSS containing 0.28 Wunsch units (WU)/mL Liberase (Roche) and 30 μg/ml DNase I (Roche) for 30 min at 37° C. with intermittent mixing. Digested tissues were washed in PBS containing 5 mM EDTA and 5% fetal bovine serum and then incubated again in the same buffer for 15 min at 37° C. prior to filtration through a cell strainer. After separation on a discontinuous 40% & 80% Percoll gradient, the mononuclear cell fraction was treated with ACK lysis buffer (Lonza). Mononuclear cells (1×10^6 cells/mL) were stimulated with phorbol 12-myristate 13-acetate (PMA, 50 ng/mL; Sigma), ionomycin (500 ng/mL; Sigma) in T cell media: RPMI 1640 (Invitrogen) supplemented with 10% (v/v) heat-inactivated FBS (Hyclone), 50 U penicillin-streptomycin (Invitrogen), 2 mM glutamine, and 50 μM β-mercaptoethanol. Cell culture supernatant was used for ELISA analyses. For flow cytometry, cells were incubated for 5 h with PMA, ionomycin and GolgiStop (BD). Intracellular cytokine staining was performed according to the manufacturer's protocol (Cytofix/Cytoperm buffer set from BD with alexa647-conjugated anti-IL-17a (eBioscience) and PE-conjugated anti-IFN-γ). LSR II (BD Biosciences) and FlowJo software (Tree Star) were used for flow cytometry and analysis. Dead cells were excluded using the Live/Dead fixable aqua dead cell stain kit (Invitrogen). Placenta/decidua extract were prepared by homogenizing samples in Tissue Extraction Reagent I (Invitrogen, FN0071) in the presence of protease inhibitor cocktail (Roche, 11873580001) on ice using pestles. The homogenates were centrifuged at 4° C. at 13,000 rpm for 20 min, and the supernatants were aliquotted and frozen at −80° C. For ELISA with sera and placenta/decidua extract, IL-6 (Ebioscience), IL-17a (Biolgened), and IL-10 (BD) were measured according to the manufacturer's protocol.
Cell preparation, Flow cytometry, ELISA Embryos at each implantation site were dissected in ice-cold HBSS containing Ca2+ and Mg2+ (Gibco). Myometrium was first peeled off of the decidua and embryos were discarded. Dissected decidual and placental tissues were then minced and enzymatically dissociated in HBSS containing 0.28 Wunsch units (WU)/mL Liberase (Roche) and 30 μg/mL DNase I (Roche) for 30 min at 37° C. with intermittent mixing. Digested tissues were washed in PBS containing 5 mM EDTA and 5% fetal bovine serum and then incubated again in the same buffer for 15 min at 37° C. prior to filtration through a cell strainer. After separation on a discontinuous 40% & 80% Percoll gradient, the mononuclear cell fraction was treated with ACK lysis buffer (Lonza). Mononuclear cells (1×10^6 cells/mL) were cultured for 24 h with or without phorbol 12-myristate 13-acetate (PMA, 50 ng/mL; Sigma) and ionomycin (500 ng/mL; Sigma) in T cell media: RPMI 1640 (Invitrogen) supplemented with 10% (v/v) heat-inactivated FBS (Hyclone), 50 U penicillin-streptomycin (Invitrogen), 2 mM glutamine, and 50 μM β-mercaptoethanol. Cell culture supernatant was used for ELISA analyses. Unstimulated cells were used to prepare total RNA for qPCR analyses. For flow cytometry, cells were incubated for 5 h with PMA, ionomycin and GolgiStop (BD). […]

[1] = test system: offspring of pregnant mice (MIA mouse model); assay: Three-chamber social approach test in adult offspring; assay type: in vivo
Procedure: Maternal Immune Activation. Mice were mated overnight and females were checked daily for the presence of seminal plugs, noted as embryonic day 0.5 (E0.5). On E12.5, pregnant female mice were weighed and injected with a single dose (20 mg/kg; i.p.) of poly(I:C) (Sigma Aldrich) or PBS vehicle. Each dam was returned to its cage and left undisturbed until the birth of its litter. All pups remained with the mother until weaning on postnatal day 21 (P21), at which time mice were group housed at maximum 5 per cage with same-sex littermates. For the IL-17 cytokine blockade experiment, monoclonal IL-17a blocking antibody (clone 50104; R&D) or isotype control antibody (IgG2a, clone 54447; R&D) was administered 6 h before maternal immune activation (FIG. 2) via i.p. route (500 μg/animal) or 2 days after maternal immune activation (FIG. 5) via i.p. route (500 μg/animal).
Three-chamber social approach. Twelve-week-old male mice were tested for social behavior using a three-chamber social approach paradigm. Experimental mice were habituated for 1 h in separate clean holding cages and then introduced into a three-chamber arena with only empty object-containment cages (circular metallic cages, Stoelting Neuroscience) for a 10-min acclimation phase in two 5-min sessions in a 3-4 h period. The following day the mice were placed in the center chamber (without access to the left and right social test areas) and allowed to explore the center area for 5 min. […] Experimental mice were given 10 min to explore both chambers and measured for approach behavior as interaction time (i.e. sniffing, approach) with targets in each chamber (within 2 cm, excluding non-nose contact or exploration). Sessions were video-recorded and object exploration time and total distance moved were analyzed using the Noldus tracking system. A social preference index was calculated as the percentage of time spent investigating the social target out of the total exploration time of both objects. […]

poly(I:C)
IL-17a in placenta/decidua extracts (IL-17a; PBS- or poly(I:C)-treated mothers): could not be detected | time until serum IL-17a is detected after injection (IL-17a; poly(I:C) at E12.5): 2 to 3 days | maternal serum IL-17a (IL-17a; poly(I:C) at E12.5): strong increase | maternal serum IL-17a (IL-17a; poly(I:C) at E12.5, listed as Poly(I:C)): further increase | serum IL-17a at later embryonic stages (IL-17a; poly(I:C) injected mothers): continue to rise until E19.5 | serum IL-17a at E14.5 (IL-17a; poly(I:C) into pregnant dams lacking IL-6 (IL-6 KO)): failed to increase | social interaction in adult offspring ([1]; prenatal exposure to MIA (poly(I:C) at E12.5)): social interaction deficits

B1: recombinant IL-6: carrier-free recombinant mouse IL-6 (R&D) (protein, UniProt P08505 25-211, looked up)
Interleukin-6: FPTSQVRRGDFTEDTTPNRPVYTTSQVGGLITHVLWEIVEMRKELCNGNSDCMNNDDALAENNLKLPEIQRNDGCYQTGYNQEICLLKISSGLLEYHSYLEYMKNNLKDNKKDKARVLQRDTETLIHIFNQEVKDLHKIVLPTPISNALLTDKLESQKEWLRTKTIQFILKSLEEFLKVTLRSTRQT
maternal serum IL-17a at E14.5 (IL-17a; injection into wild-type (WT) mothers): sufficient to induce IL-17a levels comparable to those of poly(I:C)-injected WT mothers

B2: recombinant IL-17a protein: Recombinant mouse IL-17a cytokine (R&D), injected into the fetal brain ventricle (protein, UniProt Q62386 26-158, looked up)
Interleukin-17A: AAIIPQSSACPNTEAKDFLQNVKVNLKVFNSLGAKVSSRRPSDYLNRSTSPWTLHRNEDPDRYPSVIWEAQCRHQRCVNAEGKLDHHMNSVLIQQEILVLKREPESCPFTFRVEKMLVGVGCTCVASIVRQAA
mobility (total distance in social approach test) ([1]; intra-ventricular injection at E14.5): not due to group differences in mobility | social approach behavior ([1]; intra-ventricular injection at E14.5, compared with sham injection): social approach deficit
